Source: patent US8729115B2 (Cardiolynx AG, priority 2010, dated 2014)
Read-outs that look alike come from different tables or passages of the source.

Columns and labels:
rat aortic ring segments = assay: Isometric tension: vasodilation of rat aortic ring segments preconstricted with phenylephrine; format: cell-based; settings: for EC50 / pD2-value (vasodilatory potency): concentration-relaxation curve; for EC50 / Vasodilatory potency (in words) / pD2-value (vasodilatory potency): phenylephrine-preconstricted rat aorta; for EC50: read-out: pD2-value (vasodilatory potency) (converted)
Description: Vasodilation of rat aortic ring segments preconstricted with phenylephrine, Example 3, Table 1. […].
After reaching a stable preconstriction of vascular tone, the vessels were dose-dependently vasodilated until the final tone at the highest added concentration of the vasodilator was reached. The vasodilators were added at half-logarithmic concentrations starting at 10^−8 M (=10 nanomolar). Vasodilatory potency was compared creating a concentration-relaxation curve. The data are based on experiments with aorta from at least 6 rats on 3 different days.

[1] = test system: isolated rat cardiac mitochondria; assay: ROS/RONS formation in isolated mitochondria (L-012 chemiluminescence)
From the text: Reactive oxygen and nitrogen species formation in response to in vitro challenge of isolated rat cardiac mitochondria based on reaction of the chemiluminescence dye L-012 (a luminal analogue), Example 4, Table 2. X-axis: compounds tested with concentration [μM]; y-axis: photons n per 30 sec of emission of chemiluminescence light (ECL).
Vascular oxidative stress is a well-known side effect of nitrate tolerance (an adverse condition that develops under chronic nitrate therapy). Therefore, the induction of reactive oxygen and nitrogen species formation in response to in vitro challenges with the test compounds was assessed in isolated mitochondria according to a published procedure [Daiber, A. et al., Mol Pharmacol 66 (2004), 1372-1382; Daiber, A. et al., Biochem Biophys Res Commun 338 (2005), 1865-1874; Daiber, A. et al., Mol Pharmacol 68 (2005), 579-588]. The assay is based on the reaction of the chemiluminescence dye L-012 (a luminol analogue) with reactive oxygen and nitrogen species (RONS, e.g. superoxide anion radicals, peroxynitrite anions or nitrogen dioxide radicals) and subsequent emission of chemiluminescence light (ECL). The signal is counted in photons/time (=counts/30 s). The data are based on experiments with cardiac mitochondria from at least 6 rats on 3 different days.

Beagle dogs = assay: Effects on blood pressure in Beagle dogs; format: in vivo, dog
Description: Each group was administered three ascending doses separated by 4 wash out days providing 9 different treatments as shown in the following table:
The liquid was administered per gavage. […] The capsule was administered orally.
In this group the liquid was administered intravenously as a slow bolus injection.
Blood pressure was assessed for all treatments before dosing and 1, 2, 3, 4, 5, 6, 8, 12 and 24 h after dosing.

Wistar rats = assay: Endothelial dysfunction, in vivo tolerance and cross-tolerance after 7 days treatment; set-up: species or system rat
Description: To assess the tendency of a given organic nitrate to induce in vivo tolerance and endothelial dysfunction, Wistar rats were treated for 7 days with placebo (solvent alone) or 3 increasing doses of the organic nitrate. […] Vascular function was assessed by isometric tension studies as described above. Acetylcholine (ACh) is an endothelium-dependent vasodilator whereas organic nitrates (e.g. compound 1 or nitroglycerin) are endothelium-independent vasodilators. Endothelial dysfunction will result in impaired ACh-dependent relaxation whereas nitrate tolerance and/or vascular dysfunction causes impaired compound 1 dependent or nitroglycerin dependent vasodilation.

[2] = 10-1000 μM, isolated mitochondria

Compound	Isometric tension, relaxation (Mean ± SEM) (rat aortic ring segments; Log [M] −3.5)	Isometric tension, relaxation (Mean ± SEM) (rat aortic ring segments; Log [M] −4)	Isometric tension, relaxation (Mean ± SEM) (rat aortic ring segments; Log [M] −4.5)	Isometric tension, relaxation (Mean ± SEM) (rat aortic ring segments; Log [M] −5)	Isometric tension, relaxation (Mean ± SEM) (rat aortic ring segments; Log [M] −5.5)	Isometric tension, relaxation (Mean ± SEM) (rat aortic ring segments; Log [M] −6)	Isometric tension, relaxation (Mean ± SEM) (rat aortic ring segments; Log [M] −6.5)	Isometric tension, relaxation (Mean ± SEM) (rat aortic ring segments; Log [M] −7)	Isometric tension, relaxation (Mean ± SEM) (rat aortic ring segments; Log [M] −7.5)	EC50 (rat aortic ring segments)	Vasodilatory potency (in words) (rat aortic ring segments)	ROS formation, Mean (ECL signal) ([1]; rat, 10 μM)	ROS formation, Mean (ECL signal) ([1]; rat, 100 μM)	ROS formation, Mean (ECL signal) ([1]; rat, 1000 μM)	Isometric tension, relaxation (Mean ± SEM) (rat aortic ring segments; Log [M] −3)	pD2-value (vasodilatory potency) (rat aortic ring segments)	Effect on RONS signal / in vitro oxidative stress (in words) [1, 2]	ROS formation, Mean (ECL signal) ([1]; Conc. 10 μM)	ROS formation, Mean (ECL signal) ([1]; Conc. 100 μM)	ROS formation, Mean (ECL signal) ([1]; Conc. 1000 μM)	other results
CCCCC(=O)N(Cc1ccc(-c2ccccc2-c2nnn[nH]2)cc1)[C@H](C(=O)O)C(C)C [compound 3, Valsartan]	21.98 ± 3.75%	9.43 ± 2.03%	4.94 ± 2.65%	0.29 ± 2.56%	−0.58 ± 3.84%	1.05 ± 3.85%	0.87 ± 2.97%	1.64 ± 3.06%	4.25 ± 2.13%	< 1000 µM	weak relaxing effects	2971.58 counts/30 s	2871.29 counts/30 s	9878.96 counts/30 s	–	–	–	–	–	–	–
CCCCC(=O)N(Cc1ccc(-c2ccccc2-c2nnn[nH]2)cc1)C(C(=O)N(C)CCCCO[N+](=O)[O-])C(C)C [compound 2, (2R)-3-Methyl-2-(N-((2′-(1H-tetrazol-5-yl)biphenyl-4-yl)methyl)pentanamido)-butanoyl N-methyl-N-4-nitroxybutyl-amide]	50.40 ± 7.89%	31.38 ± 6.92%	13.69 ± 3.68%	8.61 ± 2.77%	8.56 ± 2.18%	7.43 ± 1.86%	6.06 ± 1.69%	4.61 ± 1.19%	2.45 ± 0.93%	< 100 µM	–	9007.83 counts/30 s	4532.33 counts/30 s	4386.00 counts/30 s	–	–	–	–	–	–	–
O=[N+]([O-])OCCCCO [HBN, 1-Hydroxy-4-butyl nitrate]	95.69 ± 2.40%	77.74 ± 3.73%	55.15 ± 5.33%	34.50 ± 4.63%	15.21 ± 4.71%	7.11 ± 2.87%	3.24 ± 2.77%	1.42 ± 2.55%	1.84 ± 1.72%	–	intermediate vasodilatory potency	–	–	–	95.71 ± 1.27%	approximately 4.5	somewhat more pronounced effects on RONS formation	5116.17 counts/30 s	3005.75 counts/30 s	10472.33 counts/30 s	–
O=[N+]([O-])O[C@H]1CO[C@H]2[C@@H]1OC[C@H]2O[N+](=O)[O-] [ISDN, Isosorbide dinitrate]	–	–	–	–	–	–	–	–	–	–	–	–	–	–	–	–	increases the RONS signal in a concentration-dependent fashion, although only slightly	5718.33 counts/30 s	6608.83 counts/30 s	8744.83 counts/30 s	–
(2R)-3-Methyl-2-(N-((2′-(1-(2″-nitroxyethylaminocarbonyloxymethyl)-1H-tetrazol-5-yl)biphenyl-4-yl)methyl)pentanamido)butanoyl N-methyl-N-4-nitroxybutyl-amide 1A and the corresponding 2-(2″-nitroxyethylaminocarbonyloxymethyl)-2H-tetrazol-5-yl isomer 1B [compound 1]	91.52 ± 3.83%	88.20 ± 5.11%	81.43 ± 6.54%	59.97 ± 6.28%	43.47 ± 5.88%	27.39 ± 4.09%	14.66 ± 2.59%	8.52 ± 1.64%	4.64 ± 0.93%	–	–	–	–	–	–	approximately 5.5	–	6820.33 counts/30 s	4534.00 counts/30 s	5088.33 counts/30 s	Vasodilatory potency (in words) (rat aortic ring segments; listed as Valsartan dinitrate 1): as potent as isosorbide dinitrate; Vasodilatory potency (in words) (rat aortic ring segments; listed as valsartan dinitrate 1): as active as isosorbide dinitrate; Effect on RONS signal / in vitro oxidative stress (in words) ([1]; 10-1000 μM, isolated mitochondria, listed as dinitrate 1): RONS signal is suppressed at higher concentrations; Effect on RONS signal / in vitro oxidative stress (in words) ([1]; 10-1000 μM, isolated mitochondria, listed as valsartan dinitrate 1): does not induce in vitro oxidative stress in isolated mitochondria; Blood pressure lowering effect (in words) (Beagle dogs; gavage, oral capsule or intravenous, ascending doses): two sequential lowerings of blood pressure; Duration of effect on blood pressure (Beagle dogs; overall): at least 10 hours; Blood pressure lowering observed up to (Beagle dogs; several animals): up to 24 hours; Adverse effects on endothelial or vascular function, in vivo tolerance or cross tolerance (Wistar rats; low and middle dose): did not show any significant adverse effects on endothelial or vascular function; Toxic effects (Wistar rats; up to the highest dose): not show any toxic effects
CNCCCCO[N+](=O)[O-].O=[N+]([O-])O [MNBAN, N-Methyl-N-(4-nitroxybutyl)ammonium nitrate]	88.56 ± 2.69%	74.46 ± 4.13%	50.81 ± 6.88%	30.56 ± 7.29%	14.85 ± 5.75%	8.33 ± 4.85%	5.04 ± 3.29%	3.24 ± 2.80%	1.72 ± 1.50%	~31.6 µM	intermediate vasodilatory potency	–	–	–	95.84 ± 2.26%	–	–	–	–	–	Effect on RONS signal / in vitro oxidative stress (in words) [1]: somewhat more pronounced effects on RONS formation
